Measurements taken from patent US11059808B2, “Substituted phenylpyrrolecarboxamides with therapeutic activity in HIV” (New York Blood Center, Inc., priority 2014, dated 2021).
Read-outs that look alike come from different tables or passages of the source.

Tests used:
[1] = test system: panel of HIV-1 ENV-pseudoviruses (subtype A, A/D, A2/D, A/E, A/G, B, C and D); assay: microbe, parasite or virus in culture; type: cell-based
HIV-1 Integrase = target: T1, HIV-1 Integrase (Human immunodeficiency virus type 1 group M subtype B, UniProt P04585); assay: HIV-1 Integrase Assay (ExpressBio kit); type: biochemical
T1 construct: HIV-1 Integrase Assay Kit from ExpressBio; purchased ExpressBio (Thurnmont, Md.)
Experimental: HIV-1 Integrase was performed as per the protocol in the HIV-1 Integrase Assay Kit from ExpressBio (Thurnmont, Md.). (See Table 3)

TZM-bl cells = assay: Cytotoxicity in TZM-bl cells (XTT); type: cell-based; settings: for CC50: XTT, 3 days
Experimental: (§1) The cytotoxicity of test compounds in TZM-bl cells was also measured by the XTT method described previously^7. […] The soluble intracellular formazan was quantitated colorimetrically at 450 nm 4 h later. The percent of cytotoxicity and the CC50 values were calculated as above. (See Table 4)

[2] = Cytotoxicity in TZM-bl cells (XTT); type: cell-based; settings: human, XTT, 3 days
Experimental: as §1

[3] = test system: HIV-1 pseudovirus pseudotyped with HXB2 Env; assay: microbe, parasite or virus in culture; type: cell-based; settings: single cycle assay, TZM-bl cells infected with HIV-1 pseudovirus pseudotyped with HXB2 Env;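 further: endpoint is IC50 for inhibition of pseudovirus infection of TZM-bl cells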
[4] = test system: cell-to-cell fusion mediated by HIV-1 (HIV-1HXB2 Env); type: cell-based; settings: Cell-Cell fusion Assay
Experimental: To assess the ability of NBD-compounds to block cell-to-cell fusion mediated by HIV-1 we performed cell fusion assay as previously described 3^1-3 with some modifications. […] Following fusion of the two cell lines Tat induce the expression of β-gal enzyme. […] The percent inhibition and the IC50 values were calculated using the GraphPad Prism software.

[5] = test system: lab-adapted and primary HIV-1 isolates; assay: Multi-cycle infection assay in PBMC (p24 ELISA)
Experimental: PBMCs were isolated from the blood of healthy donors at the New York Blood Center by standard density gradient centrifugation using Histopaque-1077 (Sigma-Aldrich). The cells were cultured at 37° C. for 2 hr. […] The PHA-stimulated cells (5×10^4 cells/well) were infected with lab-adapted and primary HIV-1 isolates at 500 TCID50 (0.01 MOI) in the absence or presence of inhibitors at graded concentrations. Culture media were replaced every 3 days with fresh media. The supernatants were collected 7 days post-infection and tested for p24 antigen by ELISA. The percent inhibition of p24 production and IC50 values were calculated by the GraphPad Prism software.

[6] = test system: laboratory-adapted HIV-1 strains; assay: Multi-cycle infection assay in MT-2 cells (p24 ELISA); settings: read-out: IC50 (μm)
PBMC = assay: Cytotoxicity in PBMC (XTT); type: cell-based; settings: 7 days
Experimental: For the PBMC toxicity assay we used 5×10^5 cells/ml and the cytotoxicity of the compounds was measured after 7 days of incubation as previously reported^8. Following the addition of XTT the soluble intracellular formazan was quantitated colorimetrically at 450 nm 4 h later. The percent of cytotoxicity and the CC50 values were calculated as above. (See Table 4)

MT-2 cells = assay: Cytotoxicity in MT-2 cells (XTT); type: cell-based; settings: 4 days
Experimental: Cytotoxicity of test compounds in MT-2 cells was measured a by colorimetric method using XTT [(sodium 3′-(1-(phenylamino)-carbonyl)-3,4-tetrazolium-bis(4-methoxy-6-nitro) bezenesulfonic acid hydrate)] (PolySciences) as previously described^7. Briefly, 100 μl of a test compound at graded concentrations was added to an equal volume of cells (1×10^5 cells/ml) in 96 well plates followed by incubation at 37° C. for 4 days, which ran parallel to the neutralization assay in MT-2. Following the addition of XTT the soluble intracellular formazan was quantitated colorimetrically at 450 nm 4 h later. […] (See Table 4)

[7] = Human immunodeficiency virus 1, TZM-bl, read-out: IC50 (μM) ± S.D., subtype A2/D, NIH # 11905, ENV QG393.60M.ENV.A1
[8] = Human immunodeficiency virus 1, HXB2, TZM-bl
[9] = read-out: IC50 (μm), laboratory strain BaL, subtype B, co-receptor R5
[10] = read-out: IC50 (μm), laboratory strain SF162, subtype B, co-receptor R5
[11] = read-out: IC50 (μm), primary isolate 92US657, subtype B, co-receptor R5
[12] = read-out: IC50 (μm), primary isolate 93MW959, subtype C, co-receptor R5
[13] = read-out: IC50 (μm), primary isolate RU570, subtype G, co-receptor R5
[14] = RT-resistant isolate AZT-R, subtype B, MT-2, co-receptor X4
[15] = fusion resistant isolate pNL4-3 gp41(36G) V38E, N42S, subtype B, MT-2, co-receptor X4
[16] = laboratory strain MN, subtype B, MT-2, co-receptor X4
[17] = laboratory strain SF2, subtype B, MT-2, co-receptor R5X4
[18] = protease resistant isolate HIV-1RF/L-323-12-3, subtype B, MT-2, co-receptor X4

**Q.** Which IC50 [1, 7] does the source give for `Cc1nc(C(NC(=O)c2ccc(-c3ccc(Cl)cc3)[nH]2)C2CCCCN2)sc1CO` (single isomer, unassigned) [Compound 17] here?
**A.** Its IC50 is 0.41 ± 0.2 µM.

**Q.** What about the IC50 (HIV-1 Integrase) of the same molecule?
**A.** The IC50 was greater than 100 µM.

**Q.** Which CC50 (TZM-bl cells) does the source give for `Cc1nc(C(CN)NC(=O)c2ccc(-c3ccc(Cl)c(F)c3)[nH]2)sc1CO` (single isomer, unassigned) [Compound 41] here?
**A.** Its CC50 is no less than 33 µM.

**Q.** What about the IC50 ([1]; Human immunodeficiency virus 1, TZM-bl, read-out: IC50 (μM) ± S.D., subtype C, NIH # 11312, ENV ZM249M.PL1) of the same molecule?
**A.** Its IC50 is 1 µM.

**Q.** What about the IC50 (HIV-1 Integrase) of the same molecule?
**A.** The IC50 was greater than 100 µM.

**Q.** With `NCC(NC(=O)c1ccc(-c2ccc(Cl)c(F)c2)[nH]1)c1ncc(CO)s1` (single isomer, unassigned) [Compound 90] as the molecule, how does the CC50 (TZM-bl cells) read?
**A.** Its CC50 is 37.4 ± 0.3 µM.

**Q.** And the IC50 (HIV-1 Integrase)?
**A.** Its IC50 is greater than 100 µM.

**Q.** Which CC50 (TZM-bl cells) does the source give for `Cc1ccc(-c2ccc(C(=O)NC(CN)c3ncc(CO)s3)[nH]2)cc1F` (single isomer, unassigned) [Compound 99] here?
**A.** The CC50 was 38.8 ± 0.8 µM.

**Q.** What about the IC50 ([1]; Human immunodeficiency virus 1, TZM-bl, read-out: IC50 (μM) ± S.D., subtype A, ENV KNH1144) of the same molecule?
**A.** Its IC50 is 1.1 ± 0.2 µM.

**Q.** And the IC50 ([1]; subtype A, ENV BG505-T332N, read-out: IC50 (μM) ± S.D.)?
**A.** Its IC50 is 0.99 ± 0.1 µM.

**Q.** Which CC50 at 3 days [2] does the source give for `COc1cc(C(=O)NC(CN)c2nc(C)c(CO)s2)[nH]c1-c1ccc(Cl)cc1` (single isomer, unassigned) [Compound 105] here?
**A.** Its CC50 at 3 days is 16.7 ± 0.1 µM.

**Q.** And the IC50 [3, 8]?
**A.** The IC50 was 8.8 ± 0.5 µM.

**Q.** Which results are given for `Cc1nc(C(NC(=O)c2ccc(-c3ccc(Cl)cc3)[nH]2)C(C)(C)N)sc1CO` (single isomer, unassigned) [Compound 109]?
**A.** CC50 at 3 days [2]: 22.1 ± 1.8 µM; IC50 [3, 8]: 1.4 ± 0.5 µM

**Q.** Which results are given for `Cc1nc(C(NC(=O)c2ccc(-c3ccc(Cl)c(F)c3)[nH]2)C(C)(C)N)sc1CO` (single isomer, unassigned) [Compound 111]?
**A.** CC50 at 3 days [2]: 14 ± 0.4 µM; IC50 [3, 8]: 0.44 ± 0.03 µM

**Q.** Which CC50 at 3 days [2] does the source give for `Cc1ccc(-c2ccc(C(=O)NC(c3nc(C)c(CO)s3)C(C)(C)N)[nH]2)cc1F` (single isomer, unassigned) [Compound 113] here?
**A.** Its CC50 at 3 days is 17.1 ± 0.6 µM.

**Q.** What about the IC50 [3] of the same molecule?
**A.** The IC50 was 1.1 ± 0.1 µM.

**Q.** What does the source list for `CNCC(NC(=O)c1ccc(-c2ccc(C)c(F)c2)[nH]1)c1ncc(CO)s1` (single isomer, unassigned) [Compound 118]?
**A.** CC50 at 3 days [2]: 21 ± 0.8 µM; IC50 [3]: 2 ± 0.3 µM

**Q.** What does the source list for `NCC(NC(=O)c1ccc(-c2cc(F)c(Cl)c(F)c2)[nH]1)c1ncc(CO)s1` (single isomer, unassigned) [Compound 120]?
**A.** CC50 (TZM-bl cells): 31.4 ± 1.1 µM; IC50 [1, 7]: 1 ± 0.06 µM

**Q.** What does the source list for `Cc1nc(C(CN)NC(=O)c2ccc(-c3ccc(F)c(F)c3)[nH]2)sc1CO` (single isomer, unassigned) [Compound 121]?
**A.** CC50 at 3 days [2]: > 51 µM; percentage in brackets after CC50 >51 (TZM-bl cells; printed "(30%)" without explanation, presumably toxicity at 51 μM): 30%; IC50 [3, 8]: 3.4 ± 0.7 µM

**Q.** For `CC(C)(N)C(NC(=O)c1ccc(-c2ccc(Cl)c(F)c2)[nH]1)c1ncc(CO)s1` (single isomer, unassigned) [Compound 123], which CC50 at 3 days [2] is on record?
**A.** Its CC50 at 3 days is 14.5 ± 2 µM.

**Q.** And the IC50 [3, 8]?
**A.** Its IC50 is 0.56 ± 0.03 µM.

**Q.** With `Cc1ccc(-c2ccc(C(=O)NC(c3ncc(CO)s3)C(C)(C)N)[nH]2)cc1F` (single isomer, unassigned) [Compound 125] as the molecule, how does the CC50 at 3 days [2] read?
**A.** Its CC50 at 3 days is 32.5 ± 0.3 µM.

**Q.** And the IC50 [3, 8]?
**A.** Its IC50 is 0.63 ± 0.03 µM.

**Q.** For `COc1ccc(-c2ccc(C(=O)NC(CN)c3ncc(CO)s3)[nH]2)cc1OC` (single isomer, unassigned) [Compound 129], which CC50 at 3 days [2] is on record?
**A.** Its CC50 at 3 days is greater than 74.5 µM.

**Q.** What about the IC50 [3, 8] of the same molecule?
**A.** The IC50 was greater than 74.5 µM.

**Q.** For `COc1ccnc2[nH]cc(C(=O)C(=O)N3CCN(C(=O)c4ccccc4)C[C@H]3C)c12` [BMS-378806], which IC50 [4] is on record?
**A.** The IC50 was 0.014 µM.

**Q.** Which results are given for `Cc1nc(C(NC(=O)C(=O)Nc2ccc(Cl)cc2)C2CCCCN2)sc1CO` (stereo not drawn) [NBD-09027]?
**A.** IC50 [5, 9]: 35.8 ± 1.2 µM; IC50 [5, 10]: 12.7 ± 0.7 µM; IC50 [5, 11]: 8.6 ± 0.9 µM; IC50 ([5]; read-out: IC50 (μm), primary isolate 93IN101, subtype C, co-receptor R5): > 87 µM; IC50 [5, 12]: > 43.5 µM; IC50 ([5]; read-out: IC50 (μm), primary isolate BCF02, (Group 0), co-receptor R5): ~87 µM; IC50 [5, 13]: 8.5 ± 0.8 µM; IC50 [6, 14]: 4.4 ± 1.1 µM; IC50 [6, 15]: 5.8 ± 0.3 µM; IC50 ([6]; laboratory strain IIIB, subtype B, MT-2, co-receptor X4): 4.7 ± 0.6 µM; IC50 [6, 16]: 4 µM; IC50 [6, 17]: 5.7 ± 0.9 µM; IC50 [6, 18]: 14.7 ± 2.3 µM; CC50 (PBMC): > 160 µM; CC50 (MT-2 cells): > 108 µM

**Q.** For NBD-556, which IC50 ([5]; read-out: IC50 (μm), laboratory strain 89.6, subtype B, co-receptor R5X4) is on record?
**A.** Its IC50 is 4.8 ± 1 µM.

**Q.** And the IC50 [5, 9]?
**A.** Its IC50 is no less than 118 µM.

**Q.** What about the IC50 [5, 10] of the same molecule?
**A.** Its IC50 is 48.9 ± 7.3 µM.

**Q.** What about the IC50 [5, 11] of the same molecule?
**A.** The IC50 was 48 ± 1.65 µM.

**Q.** What about the IC50 [5, 12] of the same molecule?
**A.** The IC50 was 57.2 ± 8.7 µM.

**Q.** And the IC50 ([5]; read-out: IC50 (μm), primary isolate 93TH060, subtype E, co-receptor R5)?
**A.** The IC50 was greater than 45 µM.

**Q.** What about the IC50 [5, 13] of the same molecule?
**A.** Its IC50 is 19.5 ± 2.3 µM.

**Q.** What about the IC50 [6, 14] of the same molecule?
**A.** Its IC50 is 58 ± 14.3 µM.

**Q.** And the IC50 [6, 15]?
**A.** Its IC50 is 11 µM.

**Q.** What about the IC50 [6, 16] of the same molecule?
**A.** The IC50 was 15.9 ± 1.6 µM.

**Q.** What about the IC50 ([6]; laboratory strain RF, subtype B, MT-2, co-receptor R5X4) of the same molecule?
**A.** The IC50 was 18.7 ± 1.3 µM.

**Q.** And the IC50 [6, 17]?
**A.** Its IC50 is no less than 118 µM.

**Q.** What about the IC50 [6, 18] of the same molecule?
**A.** The IC50 was greater than 59 µM.

**Q.** And the CC50 (PBMC)?
**A.** The CC50 was greater than 280 µM.

**Q.** What about the CC50 (MT-2 cells) of the same molecule?
**A.** The CC50 was greater than 280 µM.

**Q.** And the IC50 (HIV-1 Integrase)?
**A.** The IC50 was greater than 200 µM.
